Results: patent US20180055844A1 (Celgene Corporation, priority 2011, published 2018)
Like-named read-outs stand apart in the source and are kept apart here.

Tests used:
human umbilical artery = experiment: Human umbilical artery angiogenesis assay; type: cell-based
NCI-H929 MM xenograft = NCI-H929 MM xenograft model; type: in vivo; details: day 19
CRBN = target: T1, CRBN (Homo sapiens, UniProt Q96SW2); experiment: CRBN interaction; type: binding; details: dose-dependent
T1 construct: endogenous in cells; HepG2 hepatocellular carcinoma cells
T1 sequence (Q96SW2 whole entry): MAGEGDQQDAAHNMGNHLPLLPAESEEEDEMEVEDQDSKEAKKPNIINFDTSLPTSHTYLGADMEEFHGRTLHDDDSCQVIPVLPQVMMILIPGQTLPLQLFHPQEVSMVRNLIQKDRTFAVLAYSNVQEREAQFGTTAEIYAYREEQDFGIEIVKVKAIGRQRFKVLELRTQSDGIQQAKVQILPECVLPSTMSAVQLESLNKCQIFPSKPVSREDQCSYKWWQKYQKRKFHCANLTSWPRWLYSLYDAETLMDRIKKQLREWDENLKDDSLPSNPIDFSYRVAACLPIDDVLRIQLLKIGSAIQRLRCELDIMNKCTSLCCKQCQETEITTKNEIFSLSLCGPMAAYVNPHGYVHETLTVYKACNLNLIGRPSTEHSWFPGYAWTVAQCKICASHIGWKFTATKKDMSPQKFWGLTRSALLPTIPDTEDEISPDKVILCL

H929 myeloma cells = experiment: Cell cycle in siRNA-transfected H929 cells; type: cell-based; details: 72 h treatment
Protocol: Cells were treated with DMSO or an amount of a compound provided herein for 48 hours. Propidium iodide staining for cell cycle was performed using CycleTEST PLUS (Becton Dickinson) according to manufacturer's protocol. Following staining, cells were analyzed by a FACSCalibur flow cytometer using ModFit LT software (Becton Dickinson).
The effect of cereblon in H929 myeloma cells was also evaluated. H929 cells were transfected with mock, negative control siRNA and CRBN-siRNA-7 for 24, 48, 72 and 96 hours.

[1] = Pharmacokinetics in monkeys on Day 1 and Day 27; details: monkey, in vivo; for AUC(0-t): read-out: AUC0-24
1054 = experiment: Activity against lenalidomide resistant cell lines; type: cell-based; details: 1054, n = 3; read-out: IC50
Protocol: (§1) The ability of compounds to effect the proliferation of MM cell lines was investigated in an in vitro study. Uptake of [^3H]-thymidine by H929 MM cells and 7-AAD uptake in several MM cell lines (H929, U266B1, Anbl-6, KMS-34, OPM-2, DF-15, DF15/R, CAG, MM1.S and LP-1) was measured as an indicator of cell proliferation. Cells were incubated in the presence of compounds for 72 hours ([^3H]-thymidine was included for the last 6 hours of the incubation period) or 5 days followed by 7-AAD uptake to measure and count viable cells.

1052 = experiment: Activity against lenalidomide resistant cell lines; type: cell-based; details: 1052, n = 3; read-out: IC50
Protocol: as §1

H929 = experiment: Activity against lenalidomide resistant cell lines; type: cell-based; details: Homo sapiens, NCI-H929; H929, n = 3
Protocol: as §1

D1 = experiment: Activity against lenalidomide resistant cell lines; type: cell-based; details: D1, n = 3; read-out: IC50
Protocol: as §1

1053 = experiment: Activity against lenalidomide resistant cell lines; type: cell-based; details: 1053, n = 3; read-out: IC50
Protocol: as §1

1051 = experiment: Activity against lenalidomide resistant cell lines; type: cell-based; details: 1051, n = 3; read-out: IC50
Protocol: as §1

[2] = tested on: lipopolysaccharide-stimulated human peripheral blood mononuclear cells (hPBMCs); experiment: PBMC cytokine profiling; type: cell-based; details: for IC50: LPS-stimulated hPBMC
[3] = Stability in human plasma; type: in vitro ADME; details: read-out: t1/2 in human plasma
DoHH-2 cells = experiment: Cytotoxicity assay (3 day ATP production); type: cell-based; details: Homo sapiens, 72 hours, read-out: DoHH2 (FL) GIC50
Protocol: (§2) Cells line Farage, DOHH2 and Rec-1 were obtained from American Type Culture Collection (Manassas, Va., USA) Cytotoxicity assays were measured in 3 day ATP production assays as follows: The cells were plated in black/clear-bottom 96-well TC plates (BD Falcon, Cat #353948) at 3000 cells/75 μL (for DoHH-2 and Farage cells) or 6000 cells/75 μL (Rec-1 cells) media per well. […] Plates were then sealed with breathable sealing films (ISC BioExpress, Cat # T-2421-50) and placed in a 37° C., 5% CO2 humidified incubator for 72 hours. In addition, cells were seeded in a separate plate in the same manner as above, 25 μL medium in 1% DMSO was added to each well. This plate was immediately tested in the CellTiter-Glo Luminescent Cell Viability Assay (Promega, Cat # G7572) as 0 time point and the results were used to calculate GIC50 in the Farage and DOHH-2 cell experiments After 72 hours of incubation, 100 μL of CellTiter-Glo reagent were added to each well and incubated at room temperature with gentle shaking for 30 minutes. The plates were then analyzed for luminescence in a TopCount NXT Reader (Packard). Each well was counted for one second. Values for duplicate wells were averaged and then compared to the zero time point DMSO control (0% inhibition) to calculate the percentage inhibition of cell growth. Mean DOHH-2 GIC50 values and Farage GIC50 values were calculated from three experiments. Rec-1 IC50 values were calculated from two experiments.

Rec-1 cells = experiment: Cytotoxicity assay (3 day ATP production); type: cell-based; details: Homo sapiens, Rec1; 72 hours; read-out: REC1 (MCL) IC50
Protocol: as §2

Farage cells = experiment: Cytotoxicity assay (3 day ATP production); type: cell-based; details: 72 hours, read-out: Farage (GCB-DLBCL) GIC50
Protocol: as §2

[4] = female, 0.15 mg/kg, Day 1, 0.15 mg/kg, female
[5] = female, 0.15 mg/kg, Day 27, 0.15 mg/kg, female
[6] = female, 1.5 mg/kg, Day 1, 1.5 mg/kg, female
[7] = female, 1.5 mg/kg, Day 27, 1.5 mg/kg, female
[8] = female, 15 mg/kg, Day 1, 15 mg/kg, female
[9] = female, 15 mg/kg, Day 27, 15 mg/kg, female
[10] = male, 0.15 mg/kg, Day 1, 0.15 mg/kg, male
[11] = male, 0.15 mg/kg, Day 27, 0.15 mg/kg, male
[12] = male, 1.5 mg/kg, Day 1, 1.5 mg/kg, male
[13] = male, 1.5 mg/kg, Day 27, 1.5 mg/kg, male
[14] = male, 15 mg/kg, Day 1, 15 mg/kg, male
[15] = male, 15 mg/kg, Day 27, 15 mg/kg, male

Cc1nc2cccc(N)c2c(=O)n1C1CCC(=O)NC1=O (stereo not shown) [compound of Formula I, 3-(5-amino-2-methyl-4-oxo-4H-quinazolin-3-yl)-piperidine-2,6-dione]
IC50 (human umbilical artery; read-out: Human angiogenesis IC50): 9.4 nM
IC50 (human umbilical artery; read-out: anti-angiogenic IC50, human umbilical artery assay): 9.4 nM
tumor growth inhibition (NCI-H929 MM xenograft; 0.3 mg/kg): 59%
tumor growth inhibition (NCI-H929 MM xenograft; 3 mg/kg): 73%
tumor growth inhibition (NCI-H929 MM xenograft; 30 mg/kg): 93%
interaction with HepG2 HCC CRBN (CRBN): interacts
interaction with endogenous myeloma CRBN (CRBN): interact
drug-induced delay in cell cycle progression (decrease of the number of cells in S phase) (H929 myeloma cells; H929, control (before CRBN knockdown)): 65%
drug-induced delay in cell cycle progression (decrease of the number of cells in S phase) (H929 myeloma cells; H929, knockdown of CRBN): 22%
Cmax [1, 4]: 63 ng/mL
Tmax [1, 4]: 2 h
AUC(0-t) [1, 4]: 450 ng·h/mL
Cmax [1, 5]: 57 ng/mL
Tmax [1, 5]: 2 to 4 h
AUC(0-t) [1, 5]: 450 ng·h/mL
Cmax [1, 6]: 680 ng/mL
Tmax [1, 6]: 2 h
AUC(0-t) [1, 6]: 4100 ng·h/mL
Cmax [1, 7]: 590 ng/mL
Tmax [1, 7]: 0.5 to 2 h
AUC(0-t) [1, 7]: 4200 ng·h/mL
Cmax [1, 8]: 4200 ng/mL
Tmax [1, 8]: 2 to 4 h
AUC(0-t) [1, 8]: 38000 ng·h/mL
Cmax [1, 9]: 7000 ng/mL
Tmax [1, 9]: 4 h
AUC(0-t) [1, 9]: 75000 ng·h/mL
Cmax [1, 10]: 36 ng/mL
Tmax [1, 10]: 2 to 4 h
AUC(0-t) [1, 10]: 430 ng·h/mL
Cmax [1, 11]: 53 ng/mL
Tmax [1, 11]: 4 h
AUC(0-t) [1, 11]: 570 ng·h/mL
Cmax [1, 12]: 510 ng/mL
Tmax [1, 12]: 2 to 4 h
AUC(0-t) [1, 12]: 4600 ng·h/mL
Cmax [1, 13]: 560 ng/mL
Tmax [1, 13]: 2 h
AUC(0-t) [1, 13]: 5700 ng·h/mL
Cmax [1, 14]: 4100 ng/mL
Tmax [1, 14]: 4 h
AUC(0-t) [1, 14]: 51000 ng·h/mL
Cmax [1, 15]: 5800 ng/mL
Tmax [1, 15]: 2 to 4 h
AUC(0-t) [1, 15]: 72000 ng·h/mL
IC50 1054: 6590 nM
IC50 1052: 4240 nM
IC50 (H929): 154 nM
IC50 (D1): 309 nM
IC50 1053: 2100 nM
IC50 1051: 2970 nM
activity at 0.1 µM ([2]; read-out: IL-10 production, mean percent of control): 480%
activity at 0.1 µM ([2]; read-out: MCP-1 production, mean percent of control): 236%
activity at 0.1 µM ([2]; read-out: RANTES production, mean percent of control): 131%
IC50 ([2]; read-out: IL-8 production IC50): > 10000 nM
IC50 ([2]; read-out: MIP-1α production IC50): 300 nM
IC50 ([2]; read-out: MIP-1β production IC50): > 10000 nM
half-life [3]: 3.83 h
IC50 (DoHH-2 cells): 610 nM
IC50 (Rec-1 cells): 470 nM
IC50 (Farage cells): 700 nM
